Residues, ends and D or L forms follow the SMILES beside them.
Experiments:
[1] = target: T1, Solute carrier organic anion transporter family member 1B1 (Homo sapiens, UniProt Q9Y6L6); conditions: chinese hamster, cho, 10 µM
T1 sequence (Q9Y6L6 whole entry): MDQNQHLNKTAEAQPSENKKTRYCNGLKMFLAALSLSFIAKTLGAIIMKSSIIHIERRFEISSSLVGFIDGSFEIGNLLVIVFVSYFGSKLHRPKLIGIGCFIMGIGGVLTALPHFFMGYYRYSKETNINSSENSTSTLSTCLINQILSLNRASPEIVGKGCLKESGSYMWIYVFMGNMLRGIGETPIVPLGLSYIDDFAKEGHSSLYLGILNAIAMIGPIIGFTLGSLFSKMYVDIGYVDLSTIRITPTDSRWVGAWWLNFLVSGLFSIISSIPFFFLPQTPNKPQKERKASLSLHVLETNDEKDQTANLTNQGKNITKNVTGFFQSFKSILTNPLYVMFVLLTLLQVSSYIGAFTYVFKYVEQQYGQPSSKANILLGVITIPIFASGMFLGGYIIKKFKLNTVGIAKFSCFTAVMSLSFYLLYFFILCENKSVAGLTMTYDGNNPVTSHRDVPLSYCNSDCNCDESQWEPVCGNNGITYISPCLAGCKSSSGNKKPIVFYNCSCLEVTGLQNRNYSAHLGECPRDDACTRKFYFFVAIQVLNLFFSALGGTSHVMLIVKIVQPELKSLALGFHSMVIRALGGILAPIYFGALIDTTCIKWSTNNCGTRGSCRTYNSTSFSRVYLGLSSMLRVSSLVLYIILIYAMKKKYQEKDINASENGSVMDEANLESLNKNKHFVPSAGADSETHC

[2] = target: T2, Solute carrier organic anion transporter family member 1B3 (Homo sapiens, UniProt Q9NPD5); conditions: chinese hamster, cho, 10 µM
T2 sequence (Q9NPD5 whole entry): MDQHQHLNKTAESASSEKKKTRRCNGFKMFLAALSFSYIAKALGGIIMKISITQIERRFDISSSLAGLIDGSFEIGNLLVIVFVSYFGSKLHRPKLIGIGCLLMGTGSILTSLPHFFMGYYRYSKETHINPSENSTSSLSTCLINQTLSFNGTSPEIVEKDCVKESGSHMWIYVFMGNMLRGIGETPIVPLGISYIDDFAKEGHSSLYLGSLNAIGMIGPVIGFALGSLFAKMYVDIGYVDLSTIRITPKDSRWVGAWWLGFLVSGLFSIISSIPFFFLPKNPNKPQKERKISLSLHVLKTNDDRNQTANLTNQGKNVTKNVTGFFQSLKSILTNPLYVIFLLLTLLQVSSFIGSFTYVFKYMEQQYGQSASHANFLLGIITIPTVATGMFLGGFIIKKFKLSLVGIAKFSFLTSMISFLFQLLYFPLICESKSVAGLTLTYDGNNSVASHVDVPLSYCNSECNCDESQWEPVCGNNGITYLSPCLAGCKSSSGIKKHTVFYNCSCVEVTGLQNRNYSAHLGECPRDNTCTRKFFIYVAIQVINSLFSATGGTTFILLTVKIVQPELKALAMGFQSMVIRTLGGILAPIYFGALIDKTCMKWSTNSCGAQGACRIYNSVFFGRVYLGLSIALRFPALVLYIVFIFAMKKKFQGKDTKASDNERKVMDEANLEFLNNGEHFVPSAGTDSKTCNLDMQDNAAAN

Row | SMILES | residual activity [1] [%] | residual activity [2] [%]
1 | Cc1cc(=O)oc2cc(O)cc(O)c12 [5,7-DIHYDROXY-4-METHYLCOUMARIN] | 79.94 | 106.7
2 | Cl.NNc1nncc2ccccc12 [HYDRALAZINE HYDROCHLORIDE] | 87.74 | 115.1
3 | C#CCOS(=O)OC1CCCCC1Oc1ccc(C(C)(C)C)cc1 (stereo not given) [PROPARGITE] | 93.31 | 106
4 | C[C@H](N)[C@H](O)c1ccc(O)c(O)c1 [LEVONORDEFRIN] | 58.62 | 80.26
5 | O=C([O-])c1cc2cc(Cc3cccnc3)ccc2o1.[Na+] | 121 | 108.4
6 | NCCC(=O)N[C@@H](Cc1cnc[nH]1)C(=O)O [CARNOSINE] | 26.44 | 98.86
7 | COc1cc(-c2coc3cc(OCc4ccccc4)c(OC)c(O)c3c2=O)cc(O)c1OC [IRIGENIN, 7-BENZYL ETHER] | 60.69 | 36.98
8 | Cl.c1cncc([C@@H]2CCCCN2)c1 [ANABASINE HYDROCHLORIDE] | 83.96 | 91.54
9 | CCC(=O)Nc1ccc(Cl)c(Cl)c1 [PROPANIL] | 92.07 | 115.2
10 | COc1ccc(C(C)=O)c(O)c1 [PAEONOL] | 121.7 | 108.3
11 | CC1(C)C(=O)C=C[C@]2(C)[C@H]3CC[C@@]4(C)[C@H](c5ccoc5)OC(=O)[C@H]5O[C@]54[C@]3(C)[C@H](O)C[C@@H]12 [DEACETYLGEDUNIN] | 74.35 | 60.92
12 | COC(=O)c1c(OC)cc2c(c1C)Oc1c(Cl)c(OC(C)=O)c(Cl)c(C)c1C(=O)O2 [GANGLEOIDIN ACETATE] | 34.6 | 54.62
13 | c1ccc2[nH]c(-c3cscn3)nc2c1 [THIABENDAZOLE] | 76.75 | 94.36
14 | CCN(CC)C(=O)N1CCN(C)CC1.O=C(O)CC(O)(CC(=O)O)C(=O)O [DIETHYLCARBAMAZINE CITRATE] | 95.54 | 81.28
15 | CNC(C)(C)Cc1ccccc1.O=S(=O)(O)O | 107.5 | 109.4
16 | C(=C\c1ccccc1)/CN1CCN(C(c2ccccc2)c2ccccc2)CC1 [CINNARIZINE] | 185.1 | 102.7
17 | O=C(O)CCCOc1ccc(Cl)cc1Cl | 123.3 | 112
18 | CCCCCCc1ccc(O)cc1O [HEXYLRESORCINOL] | 115.5 | 84.11
19 | CCN(CC)CCOCCOC(=O)C1(c2ccccc2)CCCC1.O=C(O)CC(O)(CC(=O)O)C(=O)O [CARBETAPENTANE CITRATE] | 86.24 | 97.23
20 | CC1=CC(=O)C2=C(C)C[C@H](O)[C@@H]3[C@H](OC(=O)[C@H]3C)[C@H]12 [AUSTRICINE] | 102.6 | 86.81
21 | C=C[C@](C)(O)CCC=C(C)C [LINALOOL (+)] | 102.5 | 117.7
22 | COc1c(OC)c2occc2c2oc(=O)ccc12 [PIMPINELLIN] | 104.9 | 103.2
23 | COc1cc(O)cc(OC)c1OC [ANTIAROL] | 95.16 | 113
24 | CCN(CC)CCOC(=O)C(Cc1cccc2ccccc12)CC1CCCO1.O=C(O)C(=O)O (stereo not given) [NAFRONYL OXALATE] | 74.24 | 116.5
25 | O=c1cc(-c2ccc(O)cc2)oc2cc(O)cc(O)c12 [APIGENIN] | 84.2 | 134.2

Row | SMILES | residual activity [1] [%] | residual activity [2] [%]
26 | CN1CCc2cc3c(cc2C1O)OCO3.Cl (stereo not given) [HYDRASTININE HYDROCHLORIDE] | 62.32 | 73.39
27 | Cl.Cl.NCCSSCCN [CYSTAMINE DIHYDROCHLORIDE] | 111.3 | 89.2
28 | CC(=O)CCCCn1c(=O)c2c(ncn2C)n(C)c1=O [PENTOXIFYLLINE] | 77.22 | 79.59
29 | CCn1cc(C(=O)O)c(=O)c2cnc(N3CCCC3)nc21 [PIROMIDIC ACID] | 79.57 | 101
30 | Cc1cc(=O)oc2cc(O)c(O)cc12 [4-METHYLESCULETIN] | 121.7 | 110.1
31 | O=C(O)c1cc(O)c2c(c1)[C@H]([C@H]1c3cc(C(=O)O)cc(O)c3C(=O)c3c(O[C@@H]4O[C@H](CO)[C@@H](O)[C@H](O)[C@H]4O)cccc31)c1cccc(O[C@@H]3O[C@H](CO)[C@@H](O)[C@H](O)[C@H]3O)c1C2=O [Sennoside A] | 122.9 | 111.1
32 | CC(C)COCC(CN(Cc1ccccc1)c1ccccc1)N1CCCC1.Cl.O (stereo not given) [BEPRIDIL HYDROCHLORIDE] | 124.1 | 131.3
33 | O=C1C[C@@H]2OCC=C3CN4CC[C@]56c7ccccc7N1[C@H]5[C@H]2[C@H]3C[C@H]46 [STRYCHNINE] | 79.74 | 93.97
34 | CC(=O)N1CCCC1C(=O)O (stereo not given) [N-ACETYLPROLINE] | 88.69 | 109.9
35 | CC1(C)CC23C(=O)CCC(O)C2(C)CCC13 (stereo not given) [3-NOR-3-OXOPANASINSAN-6-OL] | 100.8 | 112.2
36 | CO[C@@H]1[C@@H](OC(N)=O)[C@@H](O)[C@H](Oc2ccc3c([O-])c(NC(=O)c4ccc(O)c(CC=C(C)C)c4)c(=O)oc3c2C)OC1(C)C.[Na+] [NOVOBIOCIN SODIUM] | 56.21 | 47.15
37 | O=C(O)COc1ccc(Cl)cc1Cl [2,4-DICHLOROPHENOXYACETIC ACID] | 111.6 | 104.1
38 | Cl.c1ccc2c(CC3=NCCN3)cccc2c1 [NAPHAZOLINE HYDROCHLORIDE] | 100.7 | 95.85
39 | CC(C)NCC(O)COc1cccc2ccccc12.Cl (stereo not given) [PROPRANOLOL HYDROCHLORIDE] | 59.88 | 95.98
40 | CC(NCCc1ccc(O)cc1)C(O)c1ccc(O)cc1.Cl (stereo not given) [RITODRINE HYDROCHLORIDE] | 125.6 | 112.7
41 | CC(C)=CCc1c2c(c(O)c3c(=O)c(O)c(-c4ccccc4)oc13)C=CC(C)(C)O2 [SERICETIN] | 89.94 | 98.26
42 | O=C(O)/C=C\C(=O)O.c1ccc2nc(N3CCNCC3)ccc2c1 [QUIPAZINE MALEATE] | 102.6 | 102.9
43 | CC(=O)CC(=O)CCC(=O)O [SUCCINYLACETONE] | 92.01 | 94.95
44 | Cl.Cl.Fc1ccc(C(c2ccc(F)cc2)N2CCN(C/C=C/c3ccccc3)CC2)cc1 [FLUNARIZINE HYDROCHLORIDE] | 117.4 | 102.7
45 | COc1c(C(=O)O)ccc2c1CCC(C)(C)O2 [DIHYDRO-beta-TUBAIC ACID] | 98.02 | 102.8
46 | Br.COC(=O)C1=CCCN(C)C1 [ARECOLINE HYDROBROMIDE] | 112.6 | 103.7
47 | NCCCC[C@H](NC(=O)[C@H](Cc1ccc(O)cc1)NC(=O)[C@@H](N)CCCCN)C(=O)O [LYSYL-TYROSYL-LYSINE ACETATE] (H-Lys-Tyr-Lys-OH) | 85.47 | 124.3
48 | COc1cccc(O)c1O [3-METHOXYCATECHOL] | 98.75 | 107.5
49 | [O-][n+]1ccccc1[S][Zn][S]c1cccc[n+]1[O-] [PYRITHIONE ZINC] | 92.52 | 94.54
50 | O=C(O)c1cc(O)c(O)c(O)c1 [GALLIC ACID] | 67.94 | 91.35

Reference: ChEMBL document CHEMBL3039007, “Structure-based identification of OATP1B1/3 inhibitors” (Mol Pharmacol, 2013)
